Reference: article PMC8374946 (European journal of pharmacology, 2021)

Assays:
[1] = test system: nontransfected HEK293T cells; assay: Ca2+ fluorescent assay in nontransfected HEK293T cells; type: cell-based; settings: 10 µM for XLR-11, UR-144, AM1220
human TRPV1 channel = human TRPV1 channel (Homo sapiens, UniProt Q8NER1); assay: TRPV1 channel Ca2+ fluorescent; type: cell-based; settings: for TRPV1 channel Ca2+ signal Emax: normalized to signal with 1 µM capsaicin, HEK293T-TRPV1 cells
TRPV1 channels = settings: read-out: EC50 for TRPV1 channel activation; ref Soethoudt et al., 2017; cited from earlier work
[2] = biological target: human cannabinoid type-1 (CB1) receptor (Homo sapiens, UniProt P21554); type: cell-based
Sequence of human cannabinoid type-1 (CB1) receptor (P21554 whole entry): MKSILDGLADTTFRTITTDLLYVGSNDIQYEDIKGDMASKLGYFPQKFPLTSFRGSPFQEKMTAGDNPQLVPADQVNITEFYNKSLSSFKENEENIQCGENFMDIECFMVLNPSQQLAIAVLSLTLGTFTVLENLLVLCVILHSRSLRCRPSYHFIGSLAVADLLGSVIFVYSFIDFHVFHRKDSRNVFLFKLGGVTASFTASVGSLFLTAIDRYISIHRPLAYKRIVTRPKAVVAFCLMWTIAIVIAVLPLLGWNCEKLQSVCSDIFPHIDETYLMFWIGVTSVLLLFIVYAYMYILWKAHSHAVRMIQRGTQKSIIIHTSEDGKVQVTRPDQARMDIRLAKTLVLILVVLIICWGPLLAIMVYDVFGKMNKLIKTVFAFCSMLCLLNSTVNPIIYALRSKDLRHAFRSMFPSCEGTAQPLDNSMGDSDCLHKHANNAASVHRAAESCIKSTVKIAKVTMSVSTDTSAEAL

Sequence of human TRPV1 channel (Q8NER1 whole entry): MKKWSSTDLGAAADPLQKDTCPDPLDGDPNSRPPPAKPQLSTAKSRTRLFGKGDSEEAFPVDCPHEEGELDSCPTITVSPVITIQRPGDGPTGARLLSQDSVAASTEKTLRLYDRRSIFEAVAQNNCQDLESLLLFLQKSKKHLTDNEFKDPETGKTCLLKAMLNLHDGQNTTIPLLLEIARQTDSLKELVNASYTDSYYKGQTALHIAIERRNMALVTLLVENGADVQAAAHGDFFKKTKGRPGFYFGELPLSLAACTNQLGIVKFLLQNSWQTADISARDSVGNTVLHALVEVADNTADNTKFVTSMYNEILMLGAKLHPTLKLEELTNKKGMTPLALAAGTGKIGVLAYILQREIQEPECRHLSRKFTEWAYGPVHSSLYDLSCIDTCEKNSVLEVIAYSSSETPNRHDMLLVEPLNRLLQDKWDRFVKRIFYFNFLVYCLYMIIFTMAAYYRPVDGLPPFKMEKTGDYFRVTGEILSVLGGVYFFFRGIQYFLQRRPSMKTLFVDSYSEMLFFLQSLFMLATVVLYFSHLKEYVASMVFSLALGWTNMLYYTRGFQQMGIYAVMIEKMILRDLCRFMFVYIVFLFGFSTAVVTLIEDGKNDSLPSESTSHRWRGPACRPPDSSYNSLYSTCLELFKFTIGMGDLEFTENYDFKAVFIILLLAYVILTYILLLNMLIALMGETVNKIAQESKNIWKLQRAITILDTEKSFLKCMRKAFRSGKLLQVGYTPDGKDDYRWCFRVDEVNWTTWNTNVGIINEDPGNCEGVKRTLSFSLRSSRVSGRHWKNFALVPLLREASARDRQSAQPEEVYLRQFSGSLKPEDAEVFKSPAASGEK

Row | SMILES | Ca2+ transients in nontransfected HEK293T cells [1] | TRPV1 channel Ca2+ signal Emax (human TRPV1 channel) | EC50 (TRPV1 channels) [µM] | CB1 receptor-mediated activation of the GIRK channels [2] | EC50 (human TRPV1 channel) [nM]
1 | COc1cc(CNC(=O)CCCC/C=C/C(C)C)ccc1O [capsaicin] | not observed |  |  |  | 
2 | CC1(C)C(C(=O)c2cn(CCCCCF)c3ccccc23)C1(C)C [XLR-11] | not observed | 0.39 |  |  | 
3 | CN1CCCCC1Cn1cc(C(=O)c2cccc3ccccc23)c2ccccc21 (stereo not drawn) [AM1220] | not observed | 0.26 |  |  | 
4 | CCCCCn1cc(C(=O)C2C(C)(C)C2(C)C)c2ccccc21 [UR-144] | not observed | 0.23 |  |  | 
5 | CCCC(C)(C)c1ccc2c(c1)OC(C)(C)[C@@H]1CC=C(C)C[C@@H]21 [JWH-133] |  |  | 8.2 | no CB1 receptor-mediated activation | 
6 | CCCCC/C=C\C/C=C\C/C=C\C/C=C\CCCC(=O)NCCO [AEA, N-arachidonoylethanolamine] | not observed | 0.35 |  |  | 2100
